From patent publication US20230219957A1, “SMALL MOLECULE CB002-ANALOGES RESTORE THE P53 PATHWAY AND TARGET S-PHASE CHECKPOINT” (Brown University, priority 2020, published 2023)

Legend:
[1] = tested on: SW480 colon cancer cells; test: Propidium iodide / BrdU cell cycle analysis of synchronized cells; assay type: cell-based, human; details: all time points, versus DMSO vehicle control
Method: (§1) Cell synchronization. Synchronized cells were synchronized by double thymidine block. Cells were treated with […] thymidine for sixteen hours. The drug was removed and replaced by complete growth media for eight hours. Cells were treated for the second time with […] thymidine for sixteen hours. At this point, cells were treated and harvested.
Propidium iodide and BrdU flow cytometry assay. Cells were seeded at a density of 5×10^5 in a 6-well plate and treated for forty-eight to seventy-two hours. After treatment, floating cells were collected, and adherent cells were trypsinized, pelleted, washed with phosphate-buffered saline, and fixed in 70% ethanol overnight. For propidium iodide (PI) based Sub-G1 apoptosis analysis, cells were spun down after fixation and resuspended in phosphate-citric acid buffer (0.2M Na2HPO4+0.1M Citric Acid, pH 7.8) at room temperature for five minutes. The cell pellet was resuspended for staining with 50 μg/mL PI and 250 μg/mL ribonuclease (RNase A). For BrdU analysis, after cell fixation, cells were spun down and resuspended in one mL of 2N HCL with 0.5% Triton X-100 for thirty minutes at room temperature. Cells were pelleted, washed with phosphate-buffered saline, and resuspended in 20 μL BrdU antibody (BD Biosciences, cat no. 347580) diluted in 0.5% Tween 20/PBS/5% bovine serum albumin for thirty minutes at room temperature. Cells were then spun down and resuspended in 140 μg/mL goat-anti mouse Alexa Fluor 488 (#A-11008, Thermo Fisher Scientific, Waltham, Mass., USA) in 0.5% Tween 20 in phosphate-buffered saline/5% bovine serum albumin for thirty minutes at room temperature. Cells were then spun down and resuspended in 5 μg/mL PI: 250 μg/mL RNase A solution. Samples were analyzed on an Epics Elite Epics flow cytometer (Coulter-Beckman).
BrdU analysis gating. Cell aggregates were gated out in the PI Peak vs DNA PI histogram. BrdU lower limit intensity was set on the upper limit of the negative control. The no BrdU antibody assays and no goat-anti mouse Alexa Fluor 488 antibody assays were the negative controls. […] Gating was held constant throughout the samples within a given assay.

[2] = tested on: SW480 colon cancer cells; test: Immunoblot of cell cycle markers; assay type: cell-based, human; details: synchronized SW480
Method: Immunoblotting (additional method). After treatment, floating cells were collected, and adherent cells were trypsinized, washed with phosphate-buffered saline, and lysed with RIPA buffer (Sigma-Aldrich, St. Louis, Mo., USA) for thirty minutes to one hour at 4° C. Protein lysates were pelleted. The supernatant was collected. Total protein per sample was determined using a Pierce™ BCA Protein Assay Kit (Thermo Fisher Scientific, Waltham, Mass., USA). Proteins were denatured using 1× NuPAGE® LDS sample buffer (Thermo Fisher Scientific, Waltham, Mass., USA) and reduced with 2-mercaptoethanol (Sigma-Aldrich, St. Louis, Mo., USA). Protein lysates were boiled for fifteen min at 95° C. After protein normalization, samples were loaded into NuPAGE™ Novex™ 4-12% Bis-Tris Protein Gels (Thermo Fisher Scientific, Waltham, Mass., USA). Gel electrophoresis was performed with NuPAGE™ MES SDS Running Buffer. Proteins were transferred onto an Immobilon-P membrane (PVDF, EMD Millipore, Taunton, Mass., USA) using a Bio-Rad system with a 10% Tris-Glycine and 10% methanol transfer buffer diluted in distilled and deionized water. Membranes were blocked with 10% milk in Tris-buffered saline with Tween 20 (TBST) solution. The membranes were incubated overnight with the primary antibody, washed with TBST, and incubated with secondary antibody for one hour. Primary antibody incubations were performed in 5% milk or 5% bovine serum albumin in TBST solution as per manufacturer instructions. Signal was detected using a chemiluminescent detection kit, followed by autoradiography. The following antibodies were used: p53 (1:1000, #sc-126, Santa Cruz Biotechnology, Santa Cruz, Calif., USA), p73 (1:1000, #A300-126A, Bethyl Laboratories), Noxa (1:250, #OP180, EMD Millipore, Taunton, Mass., USA), DR5 (#3696), cleaved PARP (#9546), phospho-RPA32/RPA2 (#54762), p-cdc2 (#9111), p-cdc25c, pH3 (#3377) (1:1,000; Cell Signaling Technology, Inc., Danvers, Mass. USA) and β-actin (1:10000, A5441, Sigma).
as §1

Compound	S-phase population [1]	pcdc2(Tyr15) and pcdc25c(Ser16) expression ([2]; combination with etoposide)	pcdc2(Tyr15) and pcdc25c(Ser16) protein expression ([2]; single agent)
Cn1c(=O)c2c(ncn2C)n(C)c1=O [caffeine, reference compound]	comparable to the dimethyl sulfoxide vehicle control	decreased expression	
COc1cc([C@@H]2c3cc4c(cc3[C@@H](O[C@@H]3O[C@@H]5CO[C@@H](C)O[C@H]5[C@H](O)[C@H]3O)[C@H]3COC(=O)[C@H]23)OCO4)cc(OC)c1O [etoposide, reference compound]			enhances protein expression
